Here are results for one compound from publication doi:10.1101/2025.03.14.643404, “A Bivalent Molecular Glue Linking Lysine Acetyltransferases to Oncogene-induced Cell Death” (bioRxiv, 2025).

In one test the test system is K422. Briefly: Cell viability, 7 days compound treatment (Cell Titer-Glo), K422. Type of test: cell-based. As to conditions: Homo sapiens, 168 h; K422, 7 days; read-out: IC50 of antiproliferation. The procedure: (§1) Fifteen thousand cells were seeded in 100 μl of media per well of a U-bottom 96-well plate and treated with digitally dispensed drugs (Tecan D300e) for the indicated times and doses. After 96 hours, plates were centrifuged for 750 rpm for 3 minutes, and old media was exchanged for 100 μl of fresh media. Drug treatment was then repeated at the indicated doses. 72 hours following media change, cells were transferred to 96 well flat-bottom opaque plates. Viability was measured by adding 25 μL Cell Titer-Glo reagent (Promega G7570) to each well and luminescence was measured (BMG Labtech Pherastar FS). The background luminescence was subtracted, and the signal was normalized to DMSO-treated cells. IC50 measurements on cell lines were calculated using at least three biological replicates by separate cell passages. Fit of dose–response curves to data and statistical analysis was performed using GraphPad PRISM using the four-parameter log(inhibitor) vs response function.
In general terms: Cellular ATP, detected with luciferase, serves as a proxy for viable cell number.

The next test deals with BBC3/PUMA. The test can be described thus: Western blot of BBC3/PUMA in SUDHL5. Format: cell-based, human. As to conditions: SUDHL5, 48 hours. The procedure:
Cells were plated at 1M/mL and treated with drug at indicated timepoints and doses. Cells were harvested on ice in RIPA buffer (50mM Tris-HCl pH 8, 150mM NaCl, 1% NP-40, 0.1% DOC, 1% SDS, protease inhibitor cocktail (~20 mg/ml pepstatin, aprotinin, and leupeptin), 1mM DTT) and 1:200 benzonase (Sigma E1014) was added and incubated for 20 mins. After 10 min centrifugation at 14,000g and 4 °C, the supernatant was collected and protein concentration was measured by Bradford. SDS-PAGE analysis was carried out in either 4–12% or 12% Bis-Tris PAGE gels (Thermo NW04120 and NW04127). Antibodies used for immunoblots were: BCL6 (1:1000 v:v, Cell Signaling D65C10), p300 (1:250, Santa Cruz F-4 sc-48343), CBP (1:1000, Cell Signaling D6C5), c-MYC (1:1000, Cell Signaling D84C12), Caspase-3 (1:1000, Cell Signaling 9662), GAPDH (1:2000, Santa Cruz 6C5 sc-32233), BBC3/PUMA (1:1000, Cell Signaling E2P7G), FOXO3 (1:1000, Cell Signaling 75D8), H3K27ac (1:1000, abcam ab4729), H2BK20ac (1:1000, Cell Signaling D709W), H3 (1:10,000, Cell Signaling 1B1B2), H2B (1:10,000, Cell Signaling D2H6), p27/CDKN1B (1:1000, Cell Signaling D69C12), and TP53 (1:1000, Santa Cruz DO-1). ImageStudio (Licor) was used for blot imaging and quantification.
On the technique in general: A western blot detects proteins with antibodies after separation by electrophoresis.

In test [1] the test system is SUDHL5 cells. Briefly: RNA-seq differential genes in SUDHL5. Format: cell-based, human. The settings on record: SUDHL5, 1 nM, 30 min, 1, 2 and 4 hours; adj. P ≤ 0.05, |log2(fold change)| ≥ 0.5. The procedure: Cells were plated at 1M/mL and harvested in TRIsure (Bioline 38033). RNA was extracted using Direct-zol RNA MicroPrep columns (Zymo R2062) treated with DNAseI. cDNA was prepared (Meridian Bioscience BIO-65054) and used for qPCR (Meridian Bioscience BIO-94050) using an AppliedBiosystems QuantStudio 6Pro. Primer sequences were the following:
For sequencing library preparation, rRNA was depleted (NEB E7400) and total RNA prepared into paired-end libraries (NEB E7765) and indexed (NEB E7335). Library size distributions were confirmed using an Agilent Bioanalyzer and High Sensitivity DNA reagents (Agilent 5067) and concentrations determined by qPCR. […]
Raw reads were checked for quality using fastqc (https://www.bioinformatics.babraham.ac.uk/projects/fastqc/) and trimmed from adapters using cutadapt[111] using parameters cutadapt -a […] -b […] --nextseq-trim=20 --minimum-length 1. Transcripts were quantified using kallisto[112] against the human Gencode v33 indexed transcriptome and annotations. […] Re-processed published datasets from the Sequence Read Archive (SRA) were the following: TCIP1 – SRX20228454, SRX20228455, SRX202284546, SRX20228457, SRX20228458, SRX20228459, SRX20228448, SRX20228449, SRX20228450; CDK-TCIP1 – SRX22117221, SRX22117222, SRX22117223, SRX22117224, SRX22117225, SRX22117226, SRX22117227, SRX22117228, SRX22117229).

A further test concerns DAUDI. The test can be described thus: Cell viability, 7 days compound treatment (Cell Titer-Glo), DAUDI. Format: cell-based. The settings on record: Homo sapiens, 168 h, read-out: IC50 of antiproliferation. The procedure:
as §1

Test [2] has as its system SUDHL5 cells. The test can be described thus: TUNEL and total DNA content co-staining of SUDHL5. Type of test: cell-based, human. As to conditions: SUDHL5, 10 nM. The procedure:
1 million SUDHL5 cells were plated in 6 mL of media in 6-well plates and treated with compound for indicated timepoints and doses. 1.2 million total cells were counted, washed in PBS, fixed in 4% paraformaldehyde/PBS at a concentration of 10M/mL for 15 minutes at room temperature in the dark, washed in PBS, and stored in 70% ethanol at −20°C until ready for processing (at least 24 hours). DNA breaks in fixed cells were labeled with bromolated deoxyuridine (Br-dUTP or BrdU) by incubation with deoxynucleotidyl transferase (TdT) for 60 min at 37°C, washed, and stained with FITC-labeled anti-BrdU antibodies for 30 min at room temperature in the dark (BD 556405). Cells were resuspended in 1% BSA/PBS with 1:100 RNaseA (Invitrogen 12091021) and co-stained with 7-AAD for 30 min at room temperature in the dark (BD 559925). The suspension was gently agitated by shaking and analyzed by flow cytometry within 1 hour (BD Accuri).

Take `CNC(=O)COc1cc2cc(Nc3nc(N4CCC(C(=O)N5CCN(CCC(=O)N6CCC(n7nc(N8CCCc9cc(-c%10cnn(C)c%10)c(C(F)F)cc98)c8c7CCN(C(=O)NC)C8)CC6)CC5)CC4)ncc3Cl)cc(OC)c2n(C)c1=O` [TCIP3]: in the test with K422, the IC50 came to 4 nM. In addition, the PUMA expression increase entry in the test with BBC3/PUMA is “more than 6 fold”. In addition, in the test with SUDHL5 cells [1], the “number of genes decreased” value is 2,126 and the “number of genes induced” value is 1,510. Besides, in the test with DAUDI, the IC50 stood at 6.9 nM. Besides, the “predominant cellular effect after 24 hours” value in the test on SUDHL5 cells [2] is on record as “arrest cells in G1”.
